Source: a melting point compilation (Tetko et al.; mined from patent text by program, amines drawn as free bases though some values may be those of a salt)

**Q.** For `Cc1cc(OCC(O)CCCl)ccc1Cl` (stereo not drawn), which melting point is on record?
**A.** 87 to 89 °C

**Q.** For `COCCCOc1ccc(CCCOC(=O)NS(=O)(=O)NCCOC(C)C)c(Oc2ncc(C(F)(F)F)cc2Cl)c1`, which melting point is on record?
**A.** 67.4 to 68 °C

**Q.** Which melting point does the source give for `Cc1ccccc1C(=O)CN1C(=O)C(NC(=O)c2cc3ccccc3[nH]2)N=C(C2CCCCC2)c2cccc(C)c21` (racemic) here?
**A.** 127 to 145 °C

**Q.** For `O=C(O)/C=C/c1ccc(C(=C2CCCCCC2)c2ccc(O)c(F)c2)cc1`, which melting point is on record?
**A.** 164 to 165 °C

**Q.** With `O=C(NC1CCCCC1)NC1CCCc2sccc21` (stereo not drawn) as the compound, how does the melting point read?
**A.** 222 to 225 °C

**Q.** For `Cc1ccc2c(n1)Oc1ccc(C(C)C(=O)OCCC(N)=O)cc1C2` (stereo not drawn), which melting point is on record?
**A.** 143 to 145 °C

**Q.** Which melting point does the source give for `CNc1cc(C(=O)O)ccc1C` here?
**A.** 167 to 169 °C

**Q.** For `OC1CSC(Oc2cncc(-c3ccccc3F)c2)C(O)C1O` (stereo not drawn), which melting point is on record?
**A.** 206 to 208 °C

**Q.** Which melting point does the source give for `CN(C)C(=O)N1Cc2c(-c3noc(C4CC4)n3)ncn2-c2ccc(Cl)cc21` here?
**A.** 254 to 256 °C

**Q.** For `CC(C(=O)O)c1ccc2nc(-c3ccc(Cl)cc3)oc2c1` (stereo not drawn), which melting point is on record?
**A.** 188 to 191 °C

**Q.** Which melting point does the source give for `NC(=O)CC[C@H](NC(=O)c1ccc(OCc2ccccc2)cc1OCc1ccccc1)C(=O)N1CCN(Cc2ccccc2)CC1` here?
**A.** 133 to 135 °C

**Q.** For `COC(=O)c1ccc(OCC2CN(c3ccc(NC(C)=O)cc3)C(=O)O2)cc1` (stereo not drawn), which melting point is on record?
**A.** 188 to 190 °C

**Q.** Which melting point does the source give for `CC1(C)CC(=O)c2c(SC(C)(C)C)sc(-c3cc[nH]n3)c2C1` here?
**A.** 220 to 222 °C

**Q.** With `Cc1nc(-n2ccc(N)cc2=O)sc1C(=O)NCc1ccccc1` as the compound, how does the melting point read?
**A.** 171 to 172 °C

**Q.** For `C#CCOc1cnc(C2=NC(C)(C(C)C)C(=O)N2)c(C(=O)OC)c1` (stereo not drawn), which melting point is on record?
**A.** 83 to 84 °C

**Q.** Which melting point does the source give for `CCOC(=O)c1cn(CCc2ccc(OC)cc2)c2cc(C3CC3)nn2c1=O` here?
**A.** 160 to 165 °C

**Q.** With `Cc1ccc(O)c(-c2nc(N(C)C)sc2C(c2ccc(N(C)C)cc2)c2ccc(N(C)C)cc2)c1` as the compound, how does the melting point read?
**A.** 189 to 191 °C

**Q.** With `C#CCOc1cc(C(=O)O)cc(N)c1C(=O)c1ccccc1` as the compound, how does the melting point read?
**A.** 192 °C

**Q.** For `O=C(Nc1c(C(O)(C(F)(F)F)C(F)(F)F)ccc2ccccc12)c1cc2ccccc2s1`, which melting point is on record?
**A.** 132 to 134 °C

**Q.** For `CC(C)(C)c1nnc(NN)s1`, which melting point is on record?
**A.** 111 to 112 °C

**Q.** Which melting point does the source give for `COc1ccc(S(=O)(=O)N(CCC(F)=C(F)F)c2ccccc2/C=C/c2ccncc2)cc1` here?
**A.** 148 to 149 °C

**Q.** With `CCOC(OCC)N1C(=O)C(c2ncnc3cc(OCCOC)c(OC)cc23)c2cc(F)ccc21` (stereo not drawn) as the compound, how does the melting point read?
**A.** 245 to 255 °C

**Q.** For `COc1ccc(S(=O)(=O)N(C)c2cccc(-c3ccnc4c([N+](=O)[O-])cnn34)c2)cc1`, which melting point is on record?
**A.** 205 to 206 °C

**Q.** Which melting point does the source give for `CCCCCCCCCCCCC1=C(OC(C)=O)C(=O)c2c(Cl)cccc2C1=O` here?
**A.** 57 to 59 °C

**Q.** Which melting point does the source give for `CCc1nc(/C=C/c2cn(-c3ccccc3)nc2OCc2ccc(OCc3nc(-c4cccc(CO)c4)oc3C)c(OC)c2)cs1` here?
**A.** 130 to 132 °C

**Q.** With `CCCCOc1nc(N)c2[nH]c(=O)n(CCS(=O)(=O)c3cccc(CC(=O)OC)c3)c2n1` as the compound, how does the melting point read?
**A.** 246 to 247 °C

**Q.** Which melting point does the source give for `CC(C)C(=O)N1CCNC1=Nc1ccc(Cl)cc1Cl` here?
**A.** 147 to 148 °C

**Q.** Which melting point does the source give for `Cc1noc(-c2ccc(=O)n3c2-c2sc(-c4ccccc4)cc2SCC3)n1` here?
**A.** 183 to 185 °C

**Q.** For `CC(=O)c1cc(C)c(OCC(=O)O)c(C)c1`, which melting point is on record?
**A.** 166 to 167 °C

**Q.** For `CCc1cccc(CNC[C@@H](O)[C@H](Cc2cc(F)cc(F)c2)NC(=O)N2CCC(CS(C)(=O)=O)CC2)c1`, which melting point is on record?
**A.** 130 to 134 °C

**Q.** With `OC(c1cc(-c2ccc(F)cc2)c(-c2ccc(F)cc2)[nH]1)(C(F)(F)F)C(F)(F)F` as the compound, how does the melting point read?
**A.** 112 to 113 °C

**Q.** Which melting point does the source give for `CCCCCCCCCCNC(=O)c1cc(C(=O)NCCCCCCCCCC)cc(N(CC(=O)O)CC(=O)O)c1` here?
**A.** 164 to 167 °C

**Q.** For `CCOC(=O)C(C)Oc1ccc(OCc2ccccc2)c(F)c1` (stereo not drawn), which melting point is on record?
**A.** 77 °C

**Q.** With `Brc1ccc2nc(-c3ccc4ccccc4c3)cn2c1` as the compound, how does the melting point read?
**A.** 226 to 228 °C

**Q.** Which melting point does the source give for `CCOC(=O)Cc1ccc(NC(=O)C(COc2ccc(Cl)cc2)NS(=O)(=O)c2ccc(I)cc2)cc1` (racemic) here?
**A.** 162 to 163 °C

**Q.** For `CNC1(c2ccccc2Cl)C(=O)N(S(=O)(=O)c2ccc(OC)cc2OC)c2c(F)cc(Cl)cc21` (stereo not drawn), which melting point is on record?
**A.** 183 to 185 °C

**Q.** For `O=C(O)CCc1oc(SC2CCCCC2)nc1-c1ccc(Cl)cc1`, which melting point is on record?
**A.** 136 to 137 °C

**Q.** For `CCOC(=O)c1cccc(Nc2nccc(-c3ccnc(Cl)c3)n2)c1`, which melting point is on record?
**A.** 149 to 150 °C

**Q.** For `Cc1cnc2c(Cl)nc3cc4ccccc4cc3n12`, which melting point is on record?
**A.** 221 to 223 °C

**Q.** Which melting point does the source give for `CN(C)CCNC(=O)c1cccc(-c2cccc3cn(Cc4cccc(C(F)(F)F)c4)nc23)c1` here?
**A.** 102 to 103 °C

**Q.** With `COC(=O)C1=C(C)NC(C)=C(C(=O)OC(C)C)C1c1cc([N+](=O)[O-])ccc1Cl` (stereo not drawn) as the compound, how does the melting point read?
**A.** 163 °C

**Q.** With `O=C1c2ccc(Nc3ccc(F)cc3F)cc2CCc2c(OC[C@H](O)CO)cccc21` as the compound, how does the melting point read?
**A.** 125 °C

**Q.** With `O=C1c2ccccc2C(=O)N1OCc1ccn(C(c2ccccc2)(c2ccccc2)c2ccccc2)n1` as the compound, how does the melting point read?
**A.** 177 to 179 °C

**Q.** With `CS(=O)(=O)N1CCN([C@@H](CNCS(=O)(=O)c2ccc(OCc3ccccc3)cc2)C(=O)NO)CC1` as the compound, how does the melting point read?
**A.** 110 °C

**Q.** Which melting point does the source give for `O=C1NC(=O)N2c3ccc(Cl)cc3[C@H]3CCN4CCC[C@H]1[C@H]4[C@H]32` (racemic) here?
**A.** 243 °C

**Q.** For `Cc1nccc2[nH]c(=O)c(C(N)=O)cc12`, which melting point is on record?
**A.** > 320 °C

**Q.** For `COc1cc(C(O)c2ccccc2S(=O)(=O)Nc2ccccc2C)cc2c1OCO2` (stereo not drawn), which melting point is on record?
**A.** 155 to 158 °C

**Q.** With `O=C(CCCCl)Nc1ccc2[nH]ncc2c1` as the compound, how does the melting point read?
**A.** 160 to 161 °C
